Experimental findings from a melting point compilation (Tetko et al.) are described below.

For `O=C(Nn1cnnc1)C(F)(F)C(F)(F)C(F)(F)C(F)(F)C(F)(F)C(F)(F)C(F)(F)C(F)(F)F`, the melting point (commonly the temperature of the solid-liquid transition) worked out at 151 °C. As for `FC=C(F)F`, the figure is -78 °C; as for `CN(C)c1ccc(C2Nn3c(nnc3-c3cccc([N+](=O)[O-])c3)S2)cc1` (stereo not given), 197 to 199 °C; as for `CN(C)c1nc2ccccc2cc1C=O`, 52 to 53 °C. Compound `O=CC(C=O)c1nc2ccccc2o1` registered a melting point of 222 to 230 °C. With `Cc1ccccc1NC(=S)NN`, the melting point is 147 °C. As for `O=C1C=CC(=O)[C@@H]2CC3=C(CC4=C(C3)C[C@H]3C(=O)C=CC(=O)[C@H]3C4)C[C@H]12`, the melting point was in the range of 335 to 340 °C. The same measure for `Cc1cc(NS(=O)(=O)c2ccc(N)cc2)sn1`: 192 °C; for `CC(C)(C)C1CCC(O)CC1` (stereo not given): 66 °C. In the case of `N#C/C(=C/c1ccc(F)cc1)c1nc(-c2ccc(Cl)cc2)cs1`, the melting point came to 184 °C. For the compound `CC(CO)CO`, the melting point is -91 °C. `O=C(O)C(c1ccccc1)C1CCCCC1` (stereo not given): the melting point lay in the range of 148 to 151 °C. As for `CNC(=Nc1ncccc1C)SC`, the figure is 25 to 27 °C; as for `O=C(O)c1ccc(-c2ccccn2)s1`, 231 to 233 °C. In turn, `CCC(=O)Nc1c(C(=O)Cc2c(C)cc(C)cc2C)oc2ccccc12` yielded a melting point of 147 to 148 °C.

In the case of `FC1(F)C(F)(F)C(F)(Cl)C1(F)Cl` (stereo not given), the melting point was -15 °C.

Consider `CCC(=O)N1C(=O)OC[C@@H]1Cc1ccccc1`, for which the melting point is 42 to 44 °C. As for `O=C(O)COc1ccc(Cl)cc1CO`, the figure is 141 °C; as for `O=[N+]([O-])OC1COC2C(O)COC12` (stereo not given), 88 to 93 °C; as for `CC12CC(O)C3C(CCC4(O)CC(O)CC(O)C34CO)C1(O)CCC2C1=CC(=O)OC1` (stereo not given), 236 °C. Regarding `NC(=O)c1cc([N+](=O)[O-])ccc1Cl`, the melting point came out at 179 °C. On to `Cc1nn(C(=O)OC(C)(C)C)c(C)c1I`, for which the melting point is 56 to 58 °C.

The compound `Cc1c(C(=O)O)nnn1-c1cccc(C(F)(F)F)c1` returned a melting point of 155 to 156 °C. On to `CC(C)C1C(=O)NC(=O)NC1=O`, for which the melting point is 214 °C. Turning to `O=C(O)c1cc(F)c(F)cc1Cl`, the melting point came out at 106 °C.

Turning to `Cc1ccc(N2C(=O)C3ON=C(C(=O)c4cccs4)C3C2=O)cc1` (stereo not given), the melting point was determined as 160 °C. On to `c1ccc(CCCCc2ccccc2)cc1`, for which the melting point is 52.5 °C.

In turn, `NC(=O)c1ccccn1` came in with a melting point of 106 °C. `C=CC(O)COS(=O)(=O)c1ccc(C)cc1` (stereo not given) came in with a melting point of 57 to 63 °C. `NC1=C(Cl)C(=O)c2ccccc2C1=O` had a melting point of 201 °C. `O=c1[nH]c(=S)[nH]c2ccccc12` had a melting point of 320 to 322 °C. Turning to `O=C1OC(=O)C2=C1CCCC2`, the melting point worked out at 74 °C. Take `N#CC(=CN)S(=O)(=O)c1ccc(Cl)cc1`: the melting point fell in the range of 213 to 214 °C. The same measure for `Cc1ccc(C(=O)NC(=Cc2ccccc2)C(=O)O)cc1`: 229 to 230 °C; for `O=C1NN(c2ccccc2)C(=O)C1c1ccccc1` (stereo not given): 233 °C. For the compound `CC(=O)CC(=O)C(=O)O`, the melting point is 99.5 °C.

In turn, `CC(C)(C)OC(=O)NC(Cc1ccc2ccccc2c1)C(=O)O` (stereo not given) gave a melting point of 90 °C. `Sc1nccc(-c2ccc(Cl)cc2)n1` returned a melting point of 210 to 214 °C.

In turn, `CCOC(=O)C1=C(C)NC(C)=C(C(=O)OCC)C1c1ccccc1` had a melting point of 157 °C.

The compound `CC(=O)Nc1cc(NC(C)=O)c(C=Cc2ccccc2)c(NC(C)=O)c1C=Cc1ccccc1` showed a melting point of 330 °C.

`CCNc1nc(Cl)nc(NC(C)(C)C)n1` had a melting point of 178 °C.

`O=C1C2C3C=CC(C3)C2C(=O)N1O` (stereo not given) came in with a melting point of 167 to 170 °C.

With `FC(F)(F)c1ccc(P(c2ccc(C(F)(F)F)cc2)c2ccc(C(F)(F)F)cc2)cc1`, the melting point is 72 to 75 °C.

Take `O=C(CCl)Nc1ccc(Cl)cc1`: the melting point was in the range of 168 to 170 °C. `O=Cc1ccc(O)c(OC(F)(F)F)c1` returned a melting point of 78 °C. Take `Cc1cc2c(o1)-c1c(oc3ccc(Cl)cc13)CCC2C` (stereo not given): the melting point stood at 93 °C. Turning to `NC(=O)C(F)(Br)C(F)(F)F` (stereo not given), the melting point fell in the range of 83 to 84 °C. `CC(=O)OC1CC2C(CCC3(C)C(C(C)CCCC(C)C)CCC23)C2(C)CCC(=O)C=C12` (stereo not given) had a melting point of 101 to 102 °C.

Regarding `CCOC(=O)Cc1ccc([N+](=O)[O-])cc1`, the melting point stood at 64 °C. For `Cc1c(N(C)C)c(=O)n(-c2ccccc2)n1C`, the melting point was determined as 134 °C. The same measure for `COCCOc1ccc(CCC(=O)O)cc1N`: 93.5 to 98 °C; for `O=c1n(-c2ccccc2)c(=O)n2n1C1OC3CCC1C32` (stereo not given): 144 °C; for `COc1ccccc1-c1ccc(/C=C2\N=C(c3ccccc3)OC2=O)o1`: 170 °C. The same measure for `O=C(O)CCNC(=O)CCl`: 91 to 92 °C. In the case of `COC(=O)C1Cc2ccccc2N1C(=O)OC(C)(C)C` (stereo not given), the melting point lay in the range of 73 to 75 °C. On to `Nc1ccc(O)c2c1C(=O)c1ccccc1C2=O`, for which the melting point is 216 °C. As for `CSc1nc(N)nc(-c2cc(Cl)cc(Cl)c2)n1`, the melting point lay within 214 to 216 °C.

`O=C(CCCl)c1ccc(Br)cc1` came in with a melting point of 60 °C. For `OC1CC(c2ccccc2)NC2(CCCC2)C1` (stereo not given), the melting point lay within 240 to 243 °C. In the case of `COc1ccc(Cc2cnc(N)nc2N)cc1OC`, the melting point was found to be 233 °C. Take `O=C(C=Cc1cccc(O)c1)c1ccccc1`: the melting point fell in the range of 156 to 158 °C. Turning to `N#C/C(=N/Nc1cccc2ccccc12)c1nc2ccccc2s1`, the melting point stood at 254 °C. In turn, `CCC#CC(=O)O` returned a melting point of 50 °C.

With `O=C1Cc2ccccc21`, the melting point was found to be 14 °C.

On to `O=C1c2ccccc2C(=O)C1c1ccc(Br)cc1`, for which the melting point was 138 °C. In turn, `O=C(O)c1ccccc1Nc1cccc(C(F)(F)F)c1` showed a melting point of 134 °C. The compound `CCOC(=O)CNC(=O)c1cn(CC)c2nc(C)ccc2c1=O` gave a melting point of 198 °C. As to `CCOc1c(Nc2ccc(C(=O)O)cc2)c(=O)c1=O`, the melting point amounted to 300 °C. `CC(=O)OC1CCC2(C)C(CCC3C4CCC(=O)C4(C)CCC32)C1` (stereo not given) yielded a melting point of 138 °C. Turning to `Cc1c([N+](=O)[O-])cc(C(=O)O)cc1[N+](=O)[O-]`, the melting point lay within 155 to 159 °C. Consider `CCOC(=O)c1c(NC(=O)CN2CCN(c3ccccc3)CC2)sc2c1CCCC2`, for which the melting point is 187 to 188 °C. Compound `CCOC(=O)C(C)Oc1ccc(Oc2nc3ccc(Cl)cc3o2)cc1` (stereo not given) returned a melting point of 90 °C. Compound `N#Cc1c(-c2ccc(Br)cc2)cc2c(C#N)c(=N)n(C(=O)c3ccccc3)n2c1N` came in with a melting point of 190 °C. With `O=S1(=O)CCc2ccccc2CC1`, the melting point was 153 to 155 °C.

`O=S(=O)(SS(=O)(=O)c1ccccc1)c1ccccc1` returned a melting point of 129 to 134 °C.

In the case of `CCCCCCCCOC1OC(CO)C(O)C(O)C1O` (stereo not given), the melting point was 105 °C. The same measure for `C=CCl`: -154 °C; for `O=C(O)C1Cc2cc3c(cc21)OCO3` (stereo not given): 150 °C. Compound `OCc1cc(C(F)(F)F)ccc1N1CCOCC1` yielded a melting point of 83 to 84 °C.

In turn, `Nc1c(O)cccc1C(=O)O` registered a melting point of 240 °C. The compound `CC(=O)CC(O)C(Cl)(Cl)Cl` (stereo not given) showed a melting point of 75 to 76 °C. Consider `O=[N+]([O-])c1ccc(NS(=O)(=O)c2ccc(Cl)c(C(F)(F)F)c2)c(Cl)c1`, for which the melting point was 170 °C. The compound `N#CCS(=O)(=O)c1ccc(F)cc1` returned a melting point of 87 to 89 °C. As for `O=C(O)c1cccc(-c2nccs2)c1`, the figure is 160 to 162 °C. The compound `Cc1ccc2cc([N+](=O)[O-])ccc2n1` returned a melting point of 165 to 166 °C. In turn, `CCCCCCCCCCCC1CCCC1` showed a melting point of -10 °C.

Turning to `Clc1cc2c(c(Cl)c1Cl)Oc1c(cc(Cl)c(Cl)c1Cl)O2`, the melting point came to 243 °C.

For the compound `Cc1nnc2sc(SCc3ccc(Cl)cc3)nn2c1=O`, the melting point was 171 to 172 °C. Consider `CCOc1cc(C=O)ccc1OC`, for which the melting point is 52 °C. For the compound `CCc1ccc2c(c1)CCCC2`, the melting point was -70 °C. For `O=CC(Br)=C(Br)C(=O)O`, the melting point was found to be 123 °C.

As to `Cc1nccc(O)c1OCc1ccc(Cl)cc1`, the melting point was 195 to 199 °C. Take `COc1ccc(C=CNNc2nc(C)cc(C)n2)cc1`: the melting point was 179 to 182 °C. Take `Cc1cc(C(N)=S)no1`: the melting point is 169 to 172 °C.

Consider `c1ccc(P(CCCCCCP(c2ccccc2)c2ccccc2)c2ccccc2)cc1`, for which the melting point was 127 °C. For `CCCCCCCCCCCCCCCCCCCCc1ccccc1`, the melting point is 44 °C.

For `CSc1cnccn1`, the melting point was 44 to 47 °C. Regarding `O=C(O)C(=Cc1cccc([N+](=O)[O-])c1)c1cccc([N+](=O)[O-])c1`, the melting point fell in the range of 150 to 160 °C. The compound `CC12CCC(CC1)C2(C)C` showed a melting point of 158 °C. `O=[N+]([O-])c1ccc(-c2ccc(NNc3ccccc3)cc2)cc1` showed a melting point of 165 °C. As for `c1ccc2cc3c4ccccc4c4ccccc4c3cc2c1`, the figure is 206 °C; as for `Cc1ccc(S(=O)(=O)OCC(F)(F)F)cc1`, 40 °C; as for `FC1(F)C(Cl)=C(Cl)C(F)(F)C(F)(F)C1(F)F`, -70 °C. `O=C1Nc2ccccc2CCc2ccccc21` gave a melting point of 246 to 248 °C. As to `O=[N+]([O-])c1ccc2ncoc2c1`, the melting point was in the range of 150 to 152 °C. In turn, `N#C/C(=N\Nc1ccc(S(=O)(=O)O)cc1)c1nc2ccccc2s1` registered a melting point of 193 °C.

For `O=Cc1ncc[nH]1`, the melting point stood at 209 °C. For the compound `COc1c(F)ccc(C(N)=O)c1F`, the melting point was 112 °C. As for `CCOC(=O)N1CCNC(c2ccccc2)C1` (stereo not given), the melting point worked out at 63 °C. The same measure for `FC(F)(F)c1cc(Br)ccc1Br`: 49 °C.
